# Test results: patent US6962930B1, “Compounds, compositions and method suitable for amelioration of withdrawal syndromes and withdrawal-induced brain damage” (Lohocla Research Corporation, priority 1997, dated 2005)
# Experiments:
# naive Swiss-Webster mice = assay: Elevated plus-maze; format: in vivo; conditions: 100 or 500 mg/kg
# Method: The anxiolytic effect of the DCUK-OMe was studied in naive Swiss-Webster mice using an elevated plus-maze apparatus. The plus-shaped maze consists of two arms which are open to the environment (about 30×5 cm) and two arms with side and end walls (about 30×5×15 cm). The arms are connected to a central area (about 5×5 cm) and the plus-maze is elevated from the floor to a height of about 50 cm.
# All tests were conducted in a sound-attenuated room under low intensity light (25 Watt). […] A trained observer blind to the treatment conditions scored the number of entries into open arms, the number of entries into closed arms, the number of entries into the central area, the number of rears, and the number of grooming episodes over a 5-minute period. […] The percentage open arm entries was calculated for each animal and used as a measure of the anxiolytic/anxiogenic effects of drug treatment. In addition, the total number of entries made into either open or closed arms was recorded as a measure of drug effects on locomotor activity.
# Mice were injected with either vehicle (5% Tween-80, 20% Intralipid) or 100 mg/kg or 500 mg/kg DCUK-OMe suspended in the vehicle about 90 minutes before testing in the plus-maze apparatus. Data were expressed as the percent increase in open arm entries of the drug treated animals compared to vehicle-injected mice. […] Data were analyzed using a one-way ANOVA on ranks. […]
# [1] = system: primary cultures of rat cerebellar granule cells; assay: Glutamate-induced excitotoxic cell death, fluorescein assay; format: cell-based
# Method: Primary cultures of cerebellar granule cells were prepared from 6- to 8-day old Sprague-Dawley rats. A description of this procedure can be found in Iorio, K. R., et al., “CHRONIC EXPOSURE OF CEREBELLAR GRANULE CELLS TO ETHANOL RESULTS IN INCREASED N-METHYL-D-ASPARTATE RECEPTOR FUNCTION,” Mol. Pharmacol., 41 1142–1148 (1992), the relevant disclosures of which are incorporated herein by reference. The cultures were maintained in plates containing 24 wells of 1 ml each. Culture density was about 1.5×10^6 cells/ml. Cell viability was assayed after 7–8 days in culture by the production of fluorescein, formed from fluorescein diacetate by esterases present in living cells. […]
# Cells were washed with Mg^2+-free Locke's buffer, and then exposed to glutamate alone or glutamate in the presence of 10, 30, or 100 μM DCUK-OMe at 25° C. for 30 minutes. […] For each study, the fluorescence value of a control culture (i.e., not exposed to glutamate) was set to 35,000 fluorescence units, and fluorescence values in all other cultures determined using the same spectrofluorometric settings were normalized to that value. […] The data are then expressed as the percent cell death relative to the control cultures.
# [2] = system: ethanol withdrawal-induced seizures in C57BL/6 mice; assay: Ethanol withdrawal-induced seizures; format: in vivo; conditions: single 100 mg/kg i.p. at 0900 hours
# Description: Male C57BL/6 mice were housed individually. One group of mice were each given a measured amount of liquid diet (BioServ) containing 6.7% ethanol (v/v) and a second, control group of mice each received the same diet with maltodextrin substituted isocalorically for ethanol, as their sole nutrient source for 7 days. A description of such a test can be found in Grant, K. A., et al., “ETHANOL WITHDRAWAL SEIZURES AND THE NMDA RECEPTOR COMPLEX,” Eur. J. Pharmacol., 176 289–296, (1990), the relevant disclosures of which are incorporated herein by reference. Pair-fed mice were given a volume of liquid diet equal to the average volume that the ethanol-fed mice consumed on the previous day. This treatment regimen produces mice that are functionally tolerant to and physically dependent on ethanol. Beginning at 0700 hours on the eighth day of the diet, ethanol-containing diet was replaced with control liquid diet (“withdrawal”).
# Withdrawal seizure severity was assessed by measuring the incidence of handling-induced and spontaneous seizures, which were rated on a rating scale of 0 to 4, modified from a rating scale described by Grant, K. A., et al. in the above cited article. The rating scale was as follows: 0, little or no reaction; 1, slight jerkiness upon handling; 2, excitability increasing in magnitude to a clonic-tonic seizure; 3, spontaneous or instantaneous clonic-tonic seizure; 4, death while in a seizure. The mice were rated for seizure severity at 2, 4, 6, 7, 8, 9, 10, 11, 12 and 24 hours after ethanol withdrawal. Groups of ethanol-fed mice were injected intraperitoneally at 0700, 1100 and 1400 hours with saline, 3, 10 or 17 mg/kg (±)HA-966 (FIG. 5A) or 10, 17 or 30 mg/kg 7-Cl kynurenic acid (FIG. 5B).
# Male C57BL/6 mice were fed ethanol in a liquid diet and the withdrawal seizure severity was assessed as described in EXAMPLE 5. Groups of ethanol-fed mice received a single injection (i.p.) of either vehicle (4% Tween-80, 0.5% carboxymethylcellulose in 0.9% saline) alone or of 100 mg/kg DCUK-OMe suspended in the vehicle administered at 0900 hours. The results are presented in FIG. 6A as the median withdrawal scores of vehicle-injected (N=14) or DCUK-OMe injected (N=6) mice in which * denotes P<0.05, statistically compared to vehicle-injected mice, in the Mann-Whitney U test. FIG. 6B presents the same data as the total withdrawal score, defined as the area enclosed by the curve connecting median withdrawal scores plotted against time as in FIG. 6A. The mean total withdrawal scores±SEM for the vehicle-injected group and DCUK-OMe-injected groups are plotted in which * denotes P<0.05, statistically compared to vehicle-injected mice, by the Student t-test.
smiles,measurement,setting,value
"COC(=O)c1cc(NC(=O)N(c2ccccc2)c2ccccc2)c2c(Cl)cc(Cl)cc2n1 [DCUK-OMe, (N,N-diphenyl)-4-ureido-5,7-dichloro-2-carboxy-quinoline methyl ester]",open arm entries (anxiolytic effect),naive Swiss-Webster mice; about 90 minutes before testing,has anxyolitic activity
same,total arm entries (locomotor activity),naive Swiss-Webster mice; compared to vehicle,did not show any increase in total arm entries
same,protection from glutamate-induced cell death,[1]; 100 μM,complete protection
same,effect on glutamate-induced cell death,"[1]; 10, 30 or 100 μM, 30 minutes with glutamate",can block glutamate-induced cell death in a concentration-dependent manner
same,ethanol withdrawal severity,[2],reduces ethanol withdrawal severity
